The values below come from article PMC3607822 (The Journal of General Physiology, 2013).

Type in all cases: biochemical
For test [1], the target named is T1, CNGA3 675X homomeric channels (Homo sapiens, UniProt Q16281).
T1 sequence (Q16281 1-674 limits assumed): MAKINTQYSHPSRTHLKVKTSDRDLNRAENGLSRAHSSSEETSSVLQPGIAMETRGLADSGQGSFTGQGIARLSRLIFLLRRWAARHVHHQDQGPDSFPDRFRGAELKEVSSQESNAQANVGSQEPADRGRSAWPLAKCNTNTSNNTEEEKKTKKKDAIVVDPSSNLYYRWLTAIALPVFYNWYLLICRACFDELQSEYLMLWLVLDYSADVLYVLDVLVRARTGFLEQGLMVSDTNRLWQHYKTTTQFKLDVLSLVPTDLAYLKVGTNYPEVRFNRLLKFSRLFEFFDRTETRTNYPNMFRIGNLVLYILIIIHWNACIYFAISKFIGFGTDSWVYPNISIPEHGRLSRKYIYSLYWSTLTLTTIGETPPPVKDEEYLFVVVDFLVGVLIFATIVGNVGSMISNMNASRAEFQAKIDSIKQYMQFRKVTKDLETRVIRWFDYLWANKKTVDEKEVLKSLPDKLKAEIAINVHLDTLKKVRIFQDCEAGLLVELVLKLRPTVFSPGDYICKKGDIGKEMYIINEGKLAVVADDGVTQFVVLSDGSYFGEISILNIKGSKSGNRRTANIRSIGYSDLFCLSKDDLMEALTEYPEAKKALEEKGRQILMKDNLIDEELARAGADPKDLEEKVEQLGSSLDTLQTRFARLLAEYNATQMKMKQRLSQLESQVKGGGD
In words: Inside-out patch clamp, CNGA3 675X. Background: The patch-clamp technique gives a direct electrical read-out from membranes.

Test [2] has as its target T2, CNGA3 P99L, A105P (PA-LP) channels (Homo sapiens, UniProt Q16281, A105P/P99L).
T2 sequence (Q16281 1-694 P99L/A105P): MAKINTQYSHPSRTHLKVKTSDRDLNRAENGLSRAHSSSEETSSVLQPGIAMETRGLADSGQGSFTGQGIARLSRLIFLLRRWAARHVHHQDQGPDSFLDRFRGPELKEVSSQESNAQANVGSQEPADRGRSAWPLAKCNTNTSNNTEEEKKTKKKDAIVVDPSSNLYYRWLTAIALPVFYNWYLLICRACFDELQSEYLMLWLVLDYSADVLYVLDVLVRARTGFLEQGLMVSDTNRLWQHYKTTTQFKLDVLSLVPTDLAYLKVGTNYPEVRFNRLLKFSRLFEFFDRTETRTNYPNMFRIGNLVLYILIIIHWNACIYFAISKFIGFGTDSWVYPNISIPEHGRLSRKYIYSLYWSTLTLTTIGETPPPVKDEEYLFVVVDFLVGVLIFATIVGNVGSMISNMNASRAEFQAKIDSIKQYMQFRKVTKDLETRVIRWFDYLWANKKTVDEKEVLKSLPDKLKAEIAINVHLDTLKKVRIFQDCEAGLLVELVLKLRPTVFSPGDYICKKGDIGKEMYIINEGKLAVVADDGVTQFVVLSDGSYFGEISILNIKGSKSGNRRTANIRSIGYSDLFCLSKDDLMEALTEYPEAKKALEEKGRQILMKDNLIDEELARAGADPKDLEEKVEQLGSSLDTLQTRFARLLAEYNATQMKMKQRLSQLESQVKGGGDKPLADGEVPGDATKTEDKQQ
In words: Inside-out patch clamp, CNGA3 P99L, A105P. As to conditions: for EC50: read-out: K1/2 cGMP.

In test [3] the target is T3, heteromeric CNGA3+CNGB3 channels (Homo sapiens, UniProt Q16281+Q9NQW8).
T3 sequence (Q16281 1-694): T2 sequence (Q16281 1-694 P99L/A105P) with L99P, P105A
T3 sequence (Q9NQW8 1-809): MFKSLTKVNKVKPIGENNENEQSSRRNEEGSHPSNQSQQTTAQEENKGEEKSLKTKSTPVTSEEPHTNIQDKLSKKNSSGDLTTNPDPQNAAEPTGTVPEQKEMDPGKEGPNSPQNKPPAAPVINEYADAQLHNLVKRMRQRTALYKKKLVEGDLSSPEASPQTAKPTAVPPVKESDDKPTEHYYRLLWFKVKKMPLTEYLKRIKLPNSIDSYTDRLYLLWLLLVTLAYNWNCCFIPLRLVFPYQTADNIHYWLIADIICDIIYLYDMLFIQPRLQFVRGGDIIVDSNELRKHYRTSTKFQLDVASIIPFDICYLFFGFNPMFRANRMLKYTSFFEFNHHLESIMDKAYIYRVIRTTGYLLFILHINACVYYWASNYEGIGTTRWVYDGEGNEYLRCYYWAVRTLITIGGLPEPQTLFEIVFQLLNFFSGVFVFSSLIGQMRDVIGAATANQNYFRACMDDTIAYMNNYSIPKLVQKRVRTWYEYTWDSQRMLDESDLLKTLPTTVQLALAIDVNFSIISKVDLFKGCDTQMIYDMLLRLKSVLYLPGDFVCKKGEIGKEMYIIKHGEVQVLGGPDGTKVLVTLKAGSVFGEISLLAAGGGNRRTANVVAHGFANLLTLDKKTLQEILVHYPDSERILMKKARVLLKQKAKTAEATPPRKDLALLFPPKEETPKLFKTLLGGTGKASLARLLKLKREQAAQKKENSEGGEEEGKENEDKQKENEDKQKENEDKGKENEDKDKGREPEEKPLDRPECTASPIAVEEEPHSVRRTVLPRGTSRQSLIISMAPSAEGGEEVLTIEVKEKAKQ
The test can be described thus: Inside-out patch clamp, heteromeric CNGA3+CNGB3. The note with it: for EC50: read-out: K1/2 cGMP.

Where [4] appears, read: representative patch, before PIP3.
[5] abbreviates: representative patch, before PIP2.
The mark [6] stands for this setting: representative patch, 1 µM PIP3.
The mark [7] stands for this setting: mean, after 1 µM PIP3 or 10 µM PIP2.
Where [8] appears, read: representative patch, after PIP3 or PIP2.

Changes are numbered by the printed parent chain. Where two headings read alike, the source gives them in different places.

For the molecule `Nc1nc2c(ncn2[C@@H]2O[C@@H]3COP(=O)(O)O[C@H]3[C@H]2O)c(=O)[nH]1` [cGMP, cyclic guanosine monophosphate], in test [1] (cGMP activation), the Hill coefficient (as a rule, the slope factor of the fitted curve) is reported as 1.88 ± 0.05 (4). Besides, the EC50 in test [1] (read-out: K1/2 cGMP, +80 mV, no PIPn) was 9.22 ± 0.55 µM; in test [2] (+80 mV, no PIPn), 5.3 ± 0.18 µM; in test [2] (setting [4]), 5.7 µM; in test [3] (mean, before PIPn), 13.5 ± 0.6 µM; in test [3] (setting [5]), 12.8 µM; in test [3] (setting [4]), 16.1 µM. In addition, the Hill coefficient h in test [2] (setting [4]) was 1.7; in test [3] (mean, before PIPn), 1.9; in test [3] (setting [5]), 1.8; in test [3] (setting [4]), 2.05. Further, the “Po max cGMP” value in test [2] (saturating cGMP) is reported as 0.95 ± 0.01 (4).

As for “phosphatidylinositol (3,4,5)-trisphosphate [PIP3]”, the “PIP3-induced change in cAMP efficacy” value in test [1] (1 µM PIP3) is recorded as “preserved the PIP3-induced change in cAMP efficacy”. In addition, in test [2] (after PIP3 or PIP2 application), the “Hill coefficient h after phosphoinositide” value is 1.8 and the “K1/2 cGMP after phosphoinositide” value is reported as 9.4 ± 0.9 µM. In test [2] (setting [6]), the “Hill coefficient h after PIP3” value is 1.7 and the “K1/2 cGMP after PIP3” value is on record as 11.4 µM. Further, the “fold shift of K1/2 cGMP to higher concentration” value in test [3] (1 µM PIP3) is given as ~1.5 fold. Besides, in test [3] (1 µM PIP3 or 10 µM PIP2), the “effect on currents elicited by 5 µM cGMP” value was “attenuated the currents”. The “Imax cAMP/cGMP after phosphoinositide” value in test [3] (after PIP2 or PIP3 application) is on record as 0.30 ± 0.03. In test [3] (setting [7]), the “Hill coefficient h after phosphoinositide” value is given as 1.6 and the “K1/2 cGMP after phosphoinositide” value stood at 20.8 ± 1.4 µM. In addition, in test [3] (setting [8]), the “Hill coefficient h after phosphoinositide” value is on record as 2.0 and the “K1/2 cGMP after phosphoinositide” value came to 26.5 µM. Further, the “Imax cGMP compared with initial values” in test [3] (saturating cGMP, after 1 µM PIP3 or 10 µM PIP2) is 95.4 ± 2.8%.
